Measurements as given in PMC9701195, “Structural basis for lipid and copper regulation of the ABC transporter MsbA” (Nature Communications, 2022).
Like-named read-outs stand apart in the source and are kept apart here.

B1: MsbA (ATP-binding cassette transporter MsbA, Escherichia coli) (natural protein)
chain: HNDKDLSTWQTFRRLWPTIAPFKAGLIVAGVALILNAASDTFMLSLLKPLLDDGFGKTDRSVLVWMPLVVIGLMILRGITSYVSSYCISWVSGKVVMTMRRRLFGHMMGMPVSFFDKQSTGTLLSRITYDSEQVASSSSGALITVVREGASIIGLFIMMFYYSWQLSIILIVLAPIVSIAIRVVSKRFRNISKNMQNTMGQVTTSAEQMLKGHKEVLIFGGQEVETKRFDKVSNRMRLQGMKMVSASSISDPIIQLIASLALAFVLYAASFPSVMDSLTAGTITVVFSSMIALMRPLKSLTNVNAQFQRGMAACQTLFTILDSEQEKDEGKRVIERATGDVEFRNVTFTYPGRDVPALRNINLKIPAGKTVALVGRSGSGKSTIASLITRFYDIDEGEILMDGHDLREYTLASLRNQVALVSQNVHLFNDTVANNIAYARTEQYSREQIEEAARMAYAMDFINKMDNGLDTVIGENGVLLSGGQRQRIAIARALLRDSPILILDEATSALDTESERAIQAALDELQKNRTSLVIAHRLSTIEKADEIVVVEDGVIVERGTHNDLLEHRGVYAQLHKMQFGQ
notes: MsbA, Escherichia coli, UniProt P60752; msbA gene amplified from E. coli genomic DNA into pCDF-1b (pCDF-MsbA), N-terminal TEV-cleavable His6; Homodimer; co-purifies with copper(II), one site per subunit at the N-terminus (Met-His-Asn-Asp); For cryo-EM it was loaded with copper(II), apo or trapped with ADP-vanadate, with KDL; also called wild-type MsbA; the transporter; source: E. coli (DE3) …

Key:
MsbA [1] = biological target: T1, MsbA (Escherichia coli, UniProt P60752); assay: cryoEM structure […] Å and native MS; type: binding; conditions: outward-facing, with KDL and copper(II), NBD site
T1 construct: full length, TEV-cleavable N-terminal His6 tag cut (intact native N-terminus MHND...), expressed in E. coli BL21-AI, delipidated, homodimer in C10E5
T1 sequence (P60752 whole entry): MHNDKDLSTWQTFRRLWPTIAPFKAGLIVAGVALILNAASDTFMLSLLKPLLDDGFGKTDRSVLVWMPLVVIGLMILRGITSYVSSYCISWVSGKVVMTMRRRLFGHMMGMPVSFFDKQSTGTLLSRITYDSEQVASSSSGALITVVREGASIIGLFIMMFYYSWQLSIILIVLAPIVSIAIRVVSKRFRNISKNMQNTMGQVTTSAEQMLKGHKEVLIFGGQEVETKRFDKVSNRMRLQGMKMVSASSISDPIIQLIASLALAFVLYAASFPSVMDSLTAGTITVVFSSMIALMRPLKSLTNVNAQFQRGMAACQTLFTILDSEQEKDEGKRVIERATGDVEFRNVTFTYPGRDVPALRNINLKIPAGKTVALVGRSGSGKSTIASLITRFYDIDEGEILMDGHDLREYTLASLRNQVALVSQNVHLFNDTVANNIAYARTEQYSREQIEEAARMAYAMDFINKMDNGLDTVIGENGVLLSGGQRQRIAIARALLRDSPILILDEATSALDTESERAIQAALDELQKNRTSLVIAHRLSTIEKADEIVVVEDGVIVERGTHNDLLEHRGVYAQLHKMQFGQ

MsbA [2] = biological target: T1, MsbA; assay: biochemical; set-up: native mass spectrometry lipid titration, sequential lipid binding model, mole fractions of apo and lipid-bound MsbA; conditions: first lipid; MsbA partially loaded with copper(II); read-out: KD1
Protocol: Lipids were prepared as previously described, in which lipids dissolved in chloroform were dried under nitrogen flow placed under vacuum overnight followed by dissolving in water. The concentration of MsbA was determined using a DC protein assay (BioRad) with bovine serum albumin as the standard. MsbA was incubated with lipids at varying concentrations and mixed with 200 mM ammonium acetate supplemented with 2x CMC lauryldimethylamine oxide (LDAO) at 1:1 volume ratio. Samples were incubated in the nano electrospray ionization source chamber for a minute to reach equilibrium prior to data acquisition. These samples analyzed on Orbitrap Exactive Plus EMR mass spectrometer (Thermo Scientific) operating at identical settings as described above. The mass spectra for each titration event were obtained in triplicate. The mass spectra were deconvoluted using UniDec[55] and the resulting peak intensities for apo and lipid-bound protein were determined. The relative abundance for each species was determined by dividing the peak intensity by the total intensity to convert to mole fraction for each independent experiment. For MsbA (P) binding the N^th lipid (Ln), we applied the following sequential lipid binding model: PLn−1+L⇔KAPLn where: KAn=PLn/[PLn−1]L To better understand MsbA-lipid interactions, we determined equilibrium binding constants for MsbA binding to different lipids. For these studies, we selected 1,1′,2,2′-tetraoleoyl-cardiolipin (TOCDL, 72:4) or phosphatidic acid (PA), phosphatidylcholine (PC), phosphatidylethanolamine (PE), phosphatidylglycerol (PG), and phosphatidylserine (PS) containing the acyl chain composition, 1-palmitoyl-2-oleoyl (PO, 16:0-18:1). We also included 3-deoxy-D-manno-oct-2-ulosonic acid (Kdo)2-lipid A (KDL), an LPS precursor known to stimulate MsbA ATPase activity[22]–[24]. Except for PC, these lipids are found in E. coli[40]. MsbA partially and fully loaded with copper(II) was titrated with each lipid followed by recording their native mass spectra (Supplementary Figs. 3–6). The mole fractions of apo and lipid bound states of MsbA were extracted from the deconvoluted MS data and used to determine the equilibrium dissociation constant (KDN) for the Nth binding event (Supplementary Tables 4–5). […] The two tightest binding lipids for MsbA loaded with copper(II) were TOCDL (KD1 = 1.6 µM) and KDL (KD1 = 0.6 µM). POPG binding affinities were largely independent of the copper(II) bound state of MsbA. […] For MsbA with reduced copper(II) binding, additional 1 mM MgCl2 was added to all buffer and MsbA solution in the purification step using Ni-NTA beads. Copper(II) saturated MsbA was obtained by adding 20 uM copper (II) acetate then buffer exchanged using Bio-Spin column to remove excess copper(II). […]

MsbA [3] = biological target: T1, MsbA; assay: biochemical; set-up: native mass spectrometry lipid titration of ADP-trapped open outward-facing MsbA, sequential lipid binding model; conditions: first lipid; MsbA trapped with ADP and VO4, open outward-facing; read-out: KD1
Protocol: Lipids were prepared as previously described, in which lipids dissolved in chloroform were dried under nitrogen flow placed under vacuum overnight followed by dissolving in water. The concentration of MsbA was determined using a DC protein assay (BioRad) with bovine serum albumin as the standard. MsbA was incubated with lipids at varying concentrations and mixed with 200 mM ammonium acetate supplemented with 2x CMC lauryldimethylamine oxide (LDAO) at 1:1 volume ratio. Samples were incubated in the nano electrospray ionization source chamber for a minute to reach equilibrium prior to data acquisition. These samples analyzed on Orbitrap Exactive Plus EMR mass spectrometer (Thermo Scientific) operating at identical settings as described above. The mass spectra for each titration event were obtained in triplicate. The mass spectra were deconvoluted using UniDec[55] and the resulting peak intensities for apo and lipid-bound protein were determined. The relative abundance for each species was determined by dividing the peak intensity by the total intensity to convert to mole fraction for each independent experiment. For MsbA (P) binding the N^th lipid (Ln), we applied the following sequential lipid binding model: PLn−1+L⇔KAPLn where: KAn=PLn/[PLn−1]L To determine the impact of MsbA conformation on lipid binding affinity, analogous experiments were performed using MsbA trapped in an open, OF conformation with adenosine diphosphate (ADP) and [compound left out] (VO4). […] For example, in the presence of 0.4 μM of KDL, [compound left out]-trapped MsbA binds up to two lipids whereas the non-trapped protein binds only one KDL (Fig. 3b–c). […] The binding of POPC and POPE are reminiscent of that for MsbA partially loaded with copper(II). […] For MsbA with reduced copper(II) binding, additional 1 mM MgCl2 was added to all buffer and MsbA solution in the purification step using Ni-NTA beads. Copper(II) saturated MsbA was obtained by adding 20 uM copper (II) acetate then buffer exchanged using Bio-Spin column to remove excess copper(II). MsbA trapped by [compound left out] was obtained by adding ATP and MgCl2 to MsbA to reach the final concentration of 10 mM for both then incubating at room temperature for 10 min. After incubation, [compound left out] (pH 10) was added to reach final concentration of […] followed by incubation at 37 °C for 10 min. MsbA samples was buffer exchanged using Bio-Spin column to 200 mM ammonium acetate supplemented with 2x CMC C10E5 for native MS studies. To prepare MsbA samples for Cryo-EM studies, MsbA and trapped MsbA were preloaded with copper(II) then purified by Superdex 200 Increase 10/300 GL size exclusion column equilibrated with 200 mM NaCl, 20 mM HEPES and 2x CMC C10E5 without glycerol. […]

[4] = biological target: the molecule itself; assay: native MS; MsbA in 200 mM ammonium acetate with 2x CMC C10E5; Orbitrap Exactive Plus EMR; partially or fully copper(II)-loaded, also trapped with ADP and vanadate

Molecule	Kd (MsbA [2])	Kd (MsbA [3])	also measured
Nc1ncnc2c1ncn2[C@@H]1O[C@H](COP(=O)(O)OP(=O)(O)O)[C@@H](O)[C@H]1O [ADP]			cryoEM structure 3.6 Å and native MS (MsbA [1]; vanadate-trapped): there is clear density for ADP·VO4 in the NBDs
CCCCCCCC/C=C\CCCCCCCC(=O)O[C@H](COC(=O)CCCCCCCCCCCCCCC)COP(=O)(O)O [POPA]	14.7 ± 1.5 µM	2.2 ± 0.01 µM	
CCCCCCCC/C=C\CCCCCCCC(=O)O[C@H](COC(=O)CCCCCCCCCCCCCCC)COP(=O)([O-])OCC[N+](C)(C)C [POPC]	20.4 ± 1.4 µM	15.1 ± 0.5 µM	
CCCCCCCC/C=C\CCCCCCCC(=O)O[C@H](COC(=O)CCCCCCCCCCCCCCC)COP(=O)(O)OCCN [POPE]	12.4 ± 0.7 µM		
CCCCCCCC/C=C\CCCCCCCC(=O)O[C@H](COC(=O)CCCCCCCCCCCCCCC)COP(=O)(O)OCC(O)CO (some centres unmarked) [POPG]	4.9 ± 0.4 µM	2.6 ± 0.1 µM	
CCCCCCCC/C=C\CCCCCCCC(=O)O[C@H](COC(=O)CCCCCCCCCCCCCCC)COP(=O)(O)OC[C@H](N)C(=O)O [POPS]		2.3 ± 0.3 µM	
[O]=[V]([OH])([OH])[OH] [vanadate]			cryoEM structure 3.6 Å and native MS (MsbA [1]; ADP-vanadate-trapped): there is clear density for ADP·VO4 in the NBDs
B1			stoichiometry N [4]: 2
